Results as given in PMC6407913, “DREADD Agonist 21 Is an Effective Agonist for Muscarinic-Based DREADDs in Vitro and in Vivo” (ACS Pharmacology & Translational Science, 2018).
Several values for one entry are separate records, joined by “and”; a condition that tells them apart may be missing. Identical values can stand only once.

Columns and labels:
Format in all cases: cell-based
[1] = biological target: T1, 318 nonolfactory human GPCRs (Homo sapiens, UniProt O95800); details: GPR75; C21 5 µM
T1 construct: expressed in transfected cells; host or cells: HTLA cells, transient

[2] = biological target: 318 nonolfactory human GPCRs (Homo sapiens, UniProt P21917); details: DRD4; C21 5 µM
Chain of 318 nonolfactory human GPCRs (Homo sapiens, UniProt P21917) (P21917 whole entry): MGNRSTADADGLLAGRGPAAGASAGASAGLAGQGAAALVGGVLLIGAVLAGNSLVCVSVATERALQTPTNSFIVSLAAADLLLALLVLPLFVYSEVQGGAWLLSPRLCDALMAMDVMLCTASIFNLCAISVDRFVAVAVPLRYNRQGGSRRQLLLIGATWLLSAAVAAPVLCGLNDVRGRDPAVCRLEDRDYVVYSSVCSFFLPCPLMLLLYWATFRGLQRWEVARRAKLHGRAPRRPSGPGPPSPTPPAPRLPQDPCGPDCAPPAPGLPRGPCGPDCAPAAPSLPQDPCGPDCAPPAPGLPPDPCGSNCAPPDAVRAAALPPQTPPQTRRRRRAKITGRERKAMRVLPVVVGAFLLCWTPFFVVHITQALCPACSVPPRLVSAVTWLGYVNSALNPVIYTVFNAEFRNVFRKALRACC

[3] = biological target: T2, 318 nonolfactory human GPCRs (Homo sapiens, UniProt P28222); details: HTR1B; C21 5 µM
T2 construct: expressed in transfected cells; host or cells: HTLA cells, transient

[4] = biological target: 318 nonolfactory human GPCRs (Homo sapiens, UniProt P46093); details: GPR4; C21 5 µM
[5] = biological target: T3, 318 nonolfactory human GPCRs (Homo sapiens, UniProt Q8TDV0); details: GPR151; C21 5 µM
T3 construct: expressed in transfected cells; host or cells: HTLA cells, transient

[6] = biological target: T4, 318 nonolfactory human GPCRs (Homo sapiens, UniProt P46663); details: BDKBR1; C21 5 µM
T4 construct: expressed in transfected cells; host or cells: HTLA cells, transient

[7] = biological target: T5, 318 nonolfactory human GPCRs (Homo sapiens, UniProt Q8NFJ6); details: PK2; C21 5 µM
T5 construct: expressed in transfected cells; host or cells: HTLA cells, transient

[8] = biological target: T6, 318 nonolfactory human GPCRs (Homo sapiens, UniProt Q9Y5Y3); details: GPR45; C21 5 µM
T6 construct: expressed in transfected cells; host or cells: HTLA cells, transient
T6 sequence (Q9Y5Y3 whole entry): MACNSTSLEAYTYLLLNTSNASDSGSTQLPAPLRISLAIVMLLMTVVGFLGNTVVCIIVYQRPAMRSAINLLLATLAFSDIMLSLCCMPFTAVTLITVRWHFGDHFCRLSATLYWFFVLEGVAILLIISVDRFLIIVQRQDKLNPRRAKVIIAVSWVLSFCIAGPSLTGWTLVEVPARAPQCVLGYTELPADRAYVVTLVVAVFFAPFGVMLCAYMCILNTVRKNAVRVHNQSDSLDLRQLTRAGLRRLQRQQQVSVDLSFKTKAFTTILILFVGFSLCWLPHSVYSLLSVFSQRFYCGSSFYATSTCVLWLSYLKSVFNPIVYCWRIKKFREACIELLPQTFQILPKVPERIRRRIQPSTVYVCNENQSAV

[9] = biological target: T7, 318 nonolfactory human GPCRs (Homo sapiens, UniProt Q8IZP9); details: GPR64; C21 5 µM
T7 construct: expressed in transfected cells; host or cells: HTLA cells, transient

[10] = biological target: T8, 318 nonolfactory human GPCRs (Homo sapiens, UniProt P24530); details: EDNRB; C21 5 µM
T8 construct: expressed in transfected cells; host or cells: HTLA cells, transient
T8 sequence (P24530 27-442): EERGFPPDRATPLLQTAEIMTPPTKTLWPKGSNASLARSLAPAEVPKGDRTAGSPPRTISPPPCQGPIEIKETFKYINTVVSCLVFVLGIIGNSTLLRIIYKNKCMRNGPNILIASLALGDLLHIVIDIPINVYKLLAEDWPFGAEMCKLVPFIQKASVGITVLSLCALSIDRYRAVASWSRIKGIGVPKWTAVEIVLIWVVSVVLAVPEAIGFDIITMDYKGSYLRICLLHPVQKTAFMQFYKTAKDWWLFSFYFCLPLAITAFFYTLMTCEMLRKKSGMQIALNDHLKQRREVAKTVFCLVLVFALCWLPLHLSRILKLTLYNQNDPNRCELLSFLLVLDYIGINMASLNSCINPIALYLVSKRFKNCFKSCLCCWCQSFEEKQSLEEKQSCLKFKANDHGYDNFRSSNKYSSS

[11] = biological target: 318 nonolfactory human GPCRs (Homo sapiens, UniProt P25090); details: FPR2; C21 5 µM
[12] = biological target: T9, 318 nonolfactory human GPCRs (Homo sapiens, UniProt P25106); details: CXCR7; C21 5 µM
T9 construct: expressed in transfected cells; host or cells: HTLA cells, transient
T9 sequence (P25106 whole entry): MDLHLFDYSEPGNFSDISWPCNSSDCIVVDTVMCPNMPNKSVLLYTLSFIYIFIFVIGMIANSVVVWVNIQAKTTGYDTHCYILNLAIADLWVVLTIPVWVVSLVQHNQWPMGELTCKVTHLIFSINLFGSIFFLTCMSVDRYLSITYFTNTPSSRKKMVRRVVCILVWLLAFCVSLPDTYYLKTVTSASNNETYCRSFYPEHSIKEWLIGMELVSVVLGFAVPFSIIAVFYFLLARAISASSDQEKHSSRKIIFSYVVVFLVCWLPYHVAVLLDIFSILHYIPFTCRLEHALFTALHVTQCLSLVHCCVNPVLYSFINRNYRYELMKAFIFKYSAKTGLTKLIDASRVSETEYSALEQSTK

[13] = biological target: 318 nonolfactory human GPCRs (Homo sapiens, UniProt P47211); details: GAL1; C21 5 µM
[14] = biological target: T10, 318 nonolfactory human GPCRs (Homo sapiens, UniProt Q96LB2); details: MRGPRX1; C21 5 µM
T10 construct: expressed in transfected cells; host or cells: HTLA cells, transient

[15] = biological target: T11, 318 nonolfactory human GPCRs (Homo sapiens, UniProt P34995); details: PTGER1; C21 5 µM
T11 construct: expressed in transfected cells; host or cells: HTLA cells, transient
T11 sequence (P34995 whole entry): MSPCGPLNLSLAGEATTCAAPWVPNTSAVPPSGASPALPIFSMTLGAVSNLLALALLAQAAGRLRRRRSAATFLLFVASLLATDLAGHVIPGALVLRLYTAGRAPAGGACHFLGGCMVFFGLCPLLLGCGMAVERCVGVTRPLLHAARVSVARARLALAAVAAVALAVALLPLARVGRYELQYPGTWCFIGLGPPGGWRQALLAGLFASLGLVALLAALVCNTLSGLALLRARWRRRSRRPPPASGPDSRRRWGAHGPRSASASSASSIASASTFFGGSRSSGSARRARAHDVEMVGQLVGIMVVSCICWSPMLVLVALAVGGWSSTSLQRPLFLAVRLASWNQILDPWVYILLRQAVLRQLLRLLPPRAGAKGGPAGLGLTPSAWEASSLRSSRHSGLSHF

[16] = biological target: 318 nonolfactory human GPCRs (Homo sapiens, UniProt Q15743); details: GPR68; C21 5 µM
Chain of 318 nonolfactory human GPCRs (Homo sapiens, UniProt Q15743) (Q15743 whole entry): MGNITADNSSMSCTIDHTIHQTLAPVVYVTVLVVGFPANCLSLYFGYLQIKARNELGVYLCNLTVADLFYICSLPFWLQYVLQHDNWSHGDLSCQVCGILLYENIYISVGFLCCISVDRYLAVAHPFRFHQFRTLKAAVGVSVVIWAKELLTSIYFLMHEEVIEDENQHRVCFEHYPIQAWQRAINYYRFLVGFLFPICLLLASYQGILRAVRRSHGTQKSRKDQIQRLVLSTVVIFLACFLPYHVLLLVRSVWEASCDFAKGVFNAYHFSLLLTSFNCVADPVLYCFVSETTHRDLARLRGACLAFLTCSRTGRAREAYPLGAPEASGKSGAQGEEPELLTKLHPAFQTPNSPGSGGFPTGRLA

[17] = biological target: 318 nonolfactory human GPCRs (Homo sapiens, UniProt P43220); details: GLP1R; C21 5 µM
Chain of 318 nonolfactory human GPCRs (Homo sapiens, UniProt P43220) (P43220 24-463): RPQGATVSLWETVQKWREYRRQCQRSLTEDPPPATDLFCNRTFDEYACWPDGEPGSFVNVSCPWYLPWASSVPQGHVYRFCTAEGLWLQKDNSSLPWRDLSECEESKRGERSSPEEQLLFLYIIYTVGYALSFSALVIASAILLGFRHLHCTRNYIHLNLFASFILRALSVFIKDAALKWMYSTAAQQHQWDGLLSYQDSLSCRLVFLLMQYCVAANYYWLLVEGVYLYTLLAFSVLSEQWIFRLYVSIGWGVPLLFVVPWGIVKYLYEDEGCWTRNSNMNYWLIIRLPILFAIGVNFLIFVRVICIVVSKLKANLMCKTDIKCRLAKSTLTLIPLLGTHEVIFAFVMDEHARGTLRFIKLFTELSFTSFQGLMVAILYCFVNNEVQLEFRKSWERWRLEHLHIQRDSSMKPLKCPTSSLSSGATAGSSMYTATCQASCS

[18] = biological target: T12, 318 nonolfactory human GPCRs (Homo sapiens, UniProt Q01718); details: MC2R; C21 5 µM
T12 construct: expressed in transfected cells; host or cells: HTLA cells, transient

[19] = biological target: T13, 318 nonolfactory human GPCRs (Homo sapiens, UniProt P08912); details: CHRM5; C21 5 µM
T13 construct: expressed in transfected cells; host or cells: HTLA cells, transient

[20] = biological target: 318 nonolfactory human GPCRs (Homo sapiens, UniProt P25103); details: TACR1; C21 5 µM
Chain of 318 nonolfactory human GPCRs (Homo sapiens, UniProt P25103) (P25103 whole entry): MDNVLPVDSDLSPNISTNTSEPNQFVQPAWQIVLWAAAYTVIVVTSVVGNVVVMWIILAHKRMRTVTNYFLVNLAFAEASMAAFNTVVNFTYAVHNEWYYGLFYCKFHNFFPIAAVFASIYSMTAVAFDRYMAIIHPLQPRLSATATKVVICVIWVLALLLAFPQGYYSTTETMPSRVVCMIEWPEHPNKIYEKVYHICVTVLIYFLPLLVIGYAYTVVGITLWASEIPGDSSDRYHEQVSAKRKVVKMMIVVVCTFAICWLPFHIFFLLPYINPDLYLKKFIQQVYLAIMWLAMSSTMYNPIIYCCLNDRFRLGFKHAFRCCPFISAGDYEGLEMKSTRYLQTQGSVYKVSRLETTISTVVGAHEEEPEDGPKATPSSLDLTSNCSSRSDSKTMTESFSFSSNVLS

[21] = biological target: 318 nonolfactory human GPCRs (Homo sapiens, UniProt P41595); details: HTR2B; C21 5 µM
[22] = biological target: T14, 318 nonolfactory human GPCRs (Homo sapiens, UniProt P32247); details: BB3; C21 5 µM
T14 construct: expressed in transfected cells; host or cells: HTLA cells, transient
T14 sequence (P32247 whole entry): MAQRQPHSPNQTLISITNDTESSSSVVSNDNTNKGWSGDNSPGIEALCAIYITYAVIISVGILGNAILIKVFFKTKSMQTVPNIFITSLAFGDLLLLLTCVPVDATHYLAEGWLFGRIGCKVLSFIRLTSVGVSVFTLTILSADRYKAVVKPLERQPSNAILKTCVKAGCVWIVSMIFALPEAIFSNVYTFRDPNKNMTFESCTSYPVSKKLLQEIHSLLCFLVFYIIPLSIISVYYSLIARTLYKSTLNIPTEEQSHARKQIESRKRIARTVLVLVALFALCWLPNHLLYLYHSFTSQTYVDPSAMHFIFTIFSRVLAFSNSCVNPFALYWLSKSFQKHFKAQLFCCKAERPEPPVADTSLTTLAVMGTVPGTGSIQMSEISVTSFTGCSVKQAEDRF

[23] = biological target: T15, 318 nonolfactory human GPCRs (Homo sapiens, UniProt P25024); details: CXCR1; C21 5 µM
T15 construct: expressed in transfected cells; host or cells: HTLA cells, transient

[24] = biological target: T16, 318 nonolfactory human GPCRs (Homo sapiens, UniProt Q86Y34); details: GPR97; C21 5 µM
T16 construct: expressed in transfected cells; host or cells: HTLA cells, transient
T16 sequence (Q86Y34 21-549): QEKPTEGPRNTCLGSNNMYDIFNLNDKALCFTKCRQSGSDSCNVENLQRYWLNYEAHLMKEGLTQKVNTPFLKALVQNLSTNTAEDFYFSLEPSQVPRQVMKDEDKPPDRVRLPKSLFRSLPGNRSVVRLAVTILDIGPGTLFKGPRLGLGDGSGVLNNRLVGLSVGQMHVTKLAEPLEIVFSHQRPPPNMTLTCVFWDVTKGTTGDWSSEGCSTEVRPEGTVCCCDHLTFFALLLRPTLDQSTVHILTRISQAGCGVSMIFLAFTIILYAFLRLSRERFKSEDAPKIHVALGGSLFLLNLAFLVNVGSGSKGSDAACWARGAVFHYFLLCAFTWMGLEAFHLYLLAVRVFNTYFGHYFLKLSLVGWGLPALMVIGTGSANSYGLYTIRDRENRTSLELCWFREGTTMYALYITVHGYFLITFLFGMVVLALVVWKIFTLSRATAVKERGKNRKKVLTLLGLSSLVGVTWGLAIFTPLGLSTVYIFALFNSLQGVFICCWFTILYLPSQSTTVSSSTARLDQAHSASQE

[25] = biological target: T17, 318 nonolfactory human GPCRs (Homo sapiens, UniProt Q9HC97); details: GPR35; C21 5 µM
T17 construct: expressed in transfected cells; host or cells: HTLA cells, transient

[26] = biological target: T18, 318 nonolfactory human GPCRs (Homo sapiens, UniProt P47871); details: GCGR; C21 5 µM
T18 construct: expressed in transfected cells; host or cells: HTLA cells, transient

[27] = biological target: T19, 318 nonolfactory human GPCRs (Homo sapiens, UniProt Q969N4); details: TAAR8; C21 5 µM
T19 construct: expressed in transfected cells; host or cells: HTLA cells, transient

[28] = biological target: 318 nonolfactory human GPCRs (Homo sapiens, UniProt Q8IYL9); details: GPR65; C21 5 µM
[29] = biological target: 318 nonolfactory human GPCRs (Homo sapiens, UniProt P07550); details: ADRB2; C21 5 µM
[30] = biological target: T20, 318 nonolfactory human GPCRs (Homo sapiens, UniProt Q8TDV2); details: GPR148; C21 5 µM
T20 construct: expressed in transfected cells; host or cells: HTLA cells, transient

[31] = biological target: T21, 318 nonolfactory human GPCRs (Homo sapiens, UniProt Q9Y2T5); details: GPR52; C21 5 µM
T21 construct: expressed in transfected cells; host or cells: HTLA cells, transient
T21 sequence (Q9Y2T5 whole entry): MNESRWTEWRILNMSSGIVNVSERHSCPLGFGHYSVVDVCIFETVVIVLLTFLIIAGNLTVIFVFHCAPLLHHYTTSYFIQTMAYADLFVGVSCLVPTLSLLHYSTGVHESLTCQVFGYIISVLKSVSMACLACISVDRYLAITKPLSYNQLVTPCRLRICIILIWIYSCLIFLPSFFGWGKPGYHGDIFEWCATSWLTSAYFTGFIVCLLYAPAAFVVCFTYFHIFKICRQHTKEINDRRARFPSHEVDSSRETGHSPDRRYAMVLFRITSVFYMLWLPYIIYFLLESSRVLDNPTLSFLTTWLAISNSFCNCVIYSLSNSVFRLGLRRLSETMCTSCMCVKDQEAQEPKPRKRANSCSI

[32] = biological target: T22, 318 nonolfactory human GPCRs (Homo sapiens, UniProt Q99705); details: MCHR1R; C21 5 µM
T22 construct: expressed in transfected cells; host or cells: HTLA cells, transient

[33] = biological target: 318 nonolfactory human GPCRs (Homo sapiens, UniProt P21918); details: DRD5; C21 5 µM
[34] = biological target: T23, 318 nonolfactory human GPCRs (Homo sapiens, UniProt Q8TDU6); details: GPBA; C21 5 µM
T23 construct: expressed in transfected cells; host or cells: HTLA cells, transient
T23 sequence (Q8TDU6 whole entry): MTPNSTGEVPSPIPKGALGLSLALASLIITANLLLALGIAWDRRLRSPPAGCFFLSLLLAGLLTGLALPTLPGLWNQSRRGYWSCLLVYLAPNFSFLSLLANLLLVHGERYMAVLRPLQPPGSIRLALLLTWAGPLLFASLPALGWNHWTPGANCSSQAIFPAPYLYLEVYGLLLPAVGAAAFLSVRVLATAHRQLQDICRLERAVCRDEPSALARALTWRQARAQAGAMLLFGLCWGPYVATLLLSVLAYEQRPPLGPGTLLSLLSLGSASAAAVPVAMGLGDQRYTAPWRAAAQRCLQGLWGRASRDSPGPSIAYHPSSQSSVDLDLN

c1ccc2c(c1)N=C(N1CCNCC1)c1ccccc1N2 [C21, 11-(1-piperazinyl)-5H-dibenzo[b,e][1,4]diazepine]
FOLD OVER BASAL [1]: 1.1 fold and 0.8 fold and 0.7 fold | FOLD OVER BASAL [2]: 3.4 fold and 2.2 fold and 2 fold and 1.9 fold | FOLD OVER BASAL [3]: 0.7 fold and 0.8 fold and 0.9 fold | FOLD OVER BASAL [4]: 0.5 fold and 0.8 fold and 0.6 fold | FOLD OVER BASAL [5]: 0.6 fold and 0.5 fold | FOLD OVER BASAL [6]: 0.6 fold and 0.3 fold | FOLD OVER BASAL [7]: 0.9 fold and 1 fold and 1.1 fold and 1.3 fold | FOLD OVER BASAL [8]: 0.8 fold and 0.6 fold and 1 fold | FOLD OVER BASAL [9]: 0.6 fold and 0.7 fold and 0.8 fold | FOLD OVER BASAL [10]: 0.8 fold and 1 fold and 0.5 fold and 0.7 fold | FOLD OVER BASAL [11]: 1 fold and 1.1 fold and 0.9 fold | FOLD OVER BASAL [12]: 0.7 fold and 0.8 fold and 1.1 fold and 1.3 fold | FOLD OVER BASAL [13]: 0.7 fold and 0.5 fold and 0.9 fold and 0.8 fold | FOLD OVER BASAL [14]: 0.6 fold and 1.2 fold | FOLD OVER BASAL [15]: 0.9 fold and 1 fold and 1.6 fold and 0.8 fold | FOLD OVER BASAL [16]: 0.6 fold and 1 fold and 0.8 fold | FOLD OVER BASAL [17]: 0.6 fold and 0.8 fold and 0.7 fold and 0.5 fold | FOLD OVER BASAL [18]: 1.1 fold and 0.6 fold and 0.7 fold | FOLD OVER BASAL [19]: 0.7 fold and 0.8 fold | FOLD OVER BASAL [20]: 1.1 fold and 0.8 fold and 0.9 fold | FOLD OVER BASAL [21]: 0.3 fold and 0.2 fold | FOLD OVER BASAL [22]: 0.9 fold and 1.3 fold and 1 fold | FOLD OVER BASAL [23]: 0.6 fold and 1 fold and 0.8 fold and 1.1 fold | FOLD OVER BASAL [24]: 0.6 fold and 0.5 fold and 0.7 fold | FOLD OVER BASAL [25]: 1 fold and 1.2 fold and 0.9 fold and 1.3 fold | FOLD OVER BASAL [26]: 0.3 fold and 0.2 fold and 0.4 fold | FOLD OVER BASAL [27]: 0.5 fold and 0.8 fold | FOLD OVER BASAL [28]: 0.8 fold and 0.5 fold | FOLD OVER BASAL [29]: 1.2 fold and 0.8 fold | FOLD OVER BASAL [30]: 0.9 fold and 0.6 fold and 0.5 fold and 1 fold | FOLD OVER BASAL [31]: 0.8 fold and 1 fold and 0.6 fold | FOLD OVER BASAL [32]: 1 fold and 0.8 fold and 1.1 fold and 1.4 fold | FOLD OVER BASAL [33]: 0.8 fold and 0.7 fold | FOLD OVER BASAL [34]: 1.1 fold and 1 fold and 1.2 fold
